Results: patent publication US8987424B2, “CA6 antigen-specific cytotoxic conjugate and methods of using the same” (ImmunoGen, Inc., priority 2003, dated 2015)
“Also recorded” adds a separate entry of the source.

Key:
[1] = mice, single intravenous dose of 12.5 μg/kg; cited from earlier work
KB cells [2] = assay: Clonogenic assay; format: cell-based; conditions: Homo sapiens, 72 h exposure to free maytansine
Procedure: (§1) The cytotoxicity of maytansinoid conjugated muDS6 antibody was examined using 2 different assay formats in various DS6 positive cell lines. Clonogenic assays were conducted where cells (1000-2500 cells/well) were plated on 6-well plates in 2 ml of conjugate diluted in culture media. […] The wells were washed with PBS and the colonies were stained with a 1% w/v crystal violet/10% v/v formaldehyde/PBS solution. Unbound stain was then washed thoroughly from the wells with distilled water, and the plates were allowed to dry. The colonies were counted using a Leica StereoZoom 4 dissecting microscope.
(§2) Plating efficiency (PE) was calculated as the number of colonies/number of cells plated. Surviving fraction was calculated as PE of treated cells/PE of non-treated cells. The IC50 concentration was determined by graphing the surviving fraction of cells vs. the molar concentration of the conjugate.

TOV-21G cells = assay: Clonogenic assay; format: cell-based; conditions: Homo sapiens, TOV21G, 72 h exposure to free maytansine
Procedure: as §1, §2

T-47D cells = assay: Clonogenic assay; format: cell-based; conditions: Homo sapiens, T47D, 72 h exposure to free maytansine
Procedure: as §1, §2

BT-20 cells = assay: Clonogenic assay; format: cell-based; conditions: Homo sapiens, 72 h exposure to free maytansine
Procedure: as §1, §2

BT-483 cells = assay: Clonogenic assay; format: cell-based; conditions: Homo sapiens, 72 h exposure to free maytansine
Procedure: as §1, §2

Hs766T cells = assay: Clonogenic assay; format: cell-based; conditions: Homo sapiens, 72 h exposure to free maytansine
Procedure: as §1, §2

Caov-3 cells = assay: Clonogenic assay; format: cell-based; conditions: Homo sapiens, 72 h exposure to free maytansine
Procedure: as §1, §2

HPAC cells = assay: Clonogenic assay; format: cell-based; conditions: Homo sapiens, 72 h exposure to free maytansine
Procedure: as §1, §2

WISH cells [3] = assay: Clonogenic assay; format: cell-based; conditions: Homo sapiens, 72 h exposure to free maytansine
Procedure: as §1, §2

ZR-75-1 cells = assay: Clonogenic assay; format: cell-based; conditions: Homo sapiens, 72 h exposure to free maytansine
Procedure: as §1, §2

HPAF-II cells = assay: Clonogenic assay; format: cell-based; conditions: Homo sapiens, 72 h exposure to free maytansine
Procedure: as §1, §2

Caov-4 cells = assay: Clonogenic assay; format: cell-based; conditions: Homo sapiens, 72 h exposure to free maytansine
Procedure: as §1, §2

HeLa cells [4] = assay: Clonogenic assay; format: cell-based, human
Procedure: as §1, §2

OVCAR5 cells = assay: Clonogenic assay; format: cell-based, human
Procedure: as §1, §2

[5] = clinical trial patients; cited from earlier work
HeLa cells [6] = assay: Flow cytometry binding assay; design: species or system human; conditions: HeLa cells, versus muDS6 antibody
Procedure: (§3) Cells were maintained in a 37° C., 5% CO2 humidified incubator.
(§4) Cells ([…]) were incubated, on ice for 3-4 h, with serially diluted concentrations of the DS6 antibody prepared in FACS buffer (2% goat serum, RPMI) into 96-well plates. The cells were spun down in a table top centrifuge at 1500 rpm for 5 min at 4° C. After removing the media, the wells were then refilled with 150 μl of FACS buffer. The wash step was then repeated. FITC-labeled goat anti-mouse IgG (Jackson Immunoresearch) was diluted 1:100 to FACS buffer and incubated with the cells for 1 h on ice. The plate was covered in foil to prevent photobleaching of the signal. After two washes, the cells were fixed with 1% formaldehyde and analyzed on a flow cytometer.

KB cells [7] = assay: Flow cytometry binding assay; design: species or system human; conditions: KB cells, versus unmodified antibody
Procedure: as §3, §4
The affinity of the purified huIgG was compared with muDS6 by flow cytometry. In the first set of experiments direct binding to a CA6-expressing cell line, KB, was measured. […] To confirm that the huDS6 versions retain the affinity of muDS6, competitive binding experiments were conducted. The advantage of this format is that the same detection system is used for both murine and human antibodies; that is biotin-muDS6/streptavidin-DTAF.
(§5) The binding was conducted essentially as described for FIG. 20 except that KB cells were used rather than CaOv-3 cells.

HPAC xenografts = assay: HPAC pancreatic cancer model with humanized DS6 conjugate; format: in vivo, mice
Procedure: The in vivo activity of huDS6v1.01-DM4 was tested on the HPAC pancreatic model. HPAC cells were inoculated on day 0, and immunoconjugate treatments were given on day 13. PBS control animals were euthanized once tumor volumes exceeded 1000 mm^3. The conjugate was given at a dose of either 200 μg/kg or 600 μg/kg DM4, corresponding to an antibody concentration 15 mg/kg and 45 mg/kg, respectively. Tumor volume (FIG. 30A) and body weight (FIG. 30B) of the mice were monitored during the course of the study.

WISH cells [8] = assay: MTT cell viability assay; format: cell-based, human
Procedure: In the MTT assay, cells were seeded in 96-well plates at a density of 1000-5000 cells/well. The cells were plated with serial dilutions of either naked muDS6 or muDS6-DM1 immunoconjugate in 200 μl of culture media. The samples were run in triplicate. The cells and antibody/conjugate mixtures were then incubated for 2-7 d, at which time cell viability was assessed by an MTT ([3(4,5-dimethylthiazol-2-yl)-2,5-diphenyl tetrazolium bromide)] assay. MTT (50 μg/well) was added to the culture supernatant and allowed to incubate for 3-4 h at 37° C. The media was removed and the MTT formazan was solubilized in DMSO (175 μl/well). The absorbance at 540-545 nm was measured. […] The wells with the highest concentrations of conjugate contained no viable cells as compared to naked antibody which had no effect (FIGS. 21 and 24).
as §5

Q: Which “day of mortality from delayed hepatotoxicity” value [1] does the source give for `COc1c(O)c2c(c3cc(C(=O)N4CCc5c4c(O)c(OC)c4[nH]c(C(=O)N6CC7CC78C6=CC(=O)c6[nH]cc(C)c68)cc54)[nH]c13)CCN2C(N)=O` (centres unmarked) [CC-1065] here?
A: 50 days

Q: For `COc1cc2cc(c1Cl)N(C)C(=O)C[C@H](OC(=O)[C@H](C)N(C)C(C)=O)[C@]1(C)O[C@H]1[C@H](C)[C@@H]1C[C@@](O)(NC(=O)O1)[C@H](OC)/C=C/C=C(\C)C2` [Maytansine, maytansine], which IC50 (KB cells [2]) is on record?
A: 0.03 nM

Q: What about the IC50 (TOV-21G cells) of the same molecule?
A: 0.048 nM

Q: And the IC50 (T-47D cells)?
A: 0.12 nM

Q: And the IC50 (BT-20 cells)?
A: 0.35 nM

Q: What about the IC50 (BT-483 cells) of the same molecule?
A: 0.15 nM

Q: And the IC50 (Hs766T cells)?
A: > 3 nM

Q: What about the IC50 (Caov-3 cells) of the same molecule?
A: 0.032 nM

Q: And the IC50 (HPAC cells)?
A: 0.055 nM

Q: What about the IC50 (WISH cells [3]) of the same molecule?
A: 0.09 nM

Q: What about the IC50 (ZR-75-1 cells) of the same molecule?
A: 0.1 nM

Q: And the IC50 (HPAF-II cells)?
A: 0.6 nM

Q: And the IC50 (Caov-4 cells)?
A: 0.6 nM

Q: What about the “fold less maytansine sensitive” value (HeLa cells [4]; HeLa versus TOV-21G and HPAC) of the same molecule?
A: 2-7 fold

Q: What about the IC50 (HeLa cells [4]; Homo sapiens, HeLa, 72 h exposure to free maytansine) of the same molecule?
A: 0.1 nM

Q: And the IC50 (OVCAR5 cells; Homo sapiens, OVCAR-5, OVCAR5, 72 h exposure to free maytansine)?
A: 0.32 nM

Q: And the “fold less maytansine sensitive” value (OVCAR5 cells; OVCAR5 versus TOV-21G and HPAC)?
A: 2-7 fold

B1: cantuzumab mertansine: huC242-DM1 antibody-maytansinoid conjugate tested in a clinical trial (conjugate, chains of the INN, looked up)
VH: QVQLVQSGAEVKKPGETVKISCKASDYTFTYYGMNWVKQAPGQGLKWMGWIDTTTGEPTYAQKFQGRIAFSLETSASTAYLQIKSLKSEDTATYFCARRGPYNWYFDVWGQGTTVTVSS
VL: DIVMTQSPLSVPVTPGEPVSISCRSSKSLLHSNGNTYLYWFLQRPGQSPQLLIYRMSNLVSGVPDRFSGSGSGTAFTLRISRVEAEDVGVYYCLQHLEYPFTFGPGTKLELK
modifications: DM1 maytansinoid conjugate
notes: huC242-DM1 antibody-maytansinoid conjugate tested in a clinical trial
Q: With B1 as the molecule, how does the “correlation of pretreatment shed CanAg levels with pharmacokinetics of antibody clearance” value [5] read?
A: no correlation

B2: DS6-MM1-202 (conjugate)
VH: QAYLQQSGAELVRSGASVKMSCKASGYTFTSYNMHWVKQTPGQGLEWIGYIYPGNGATNYNQKFKGKATLTADPSSSTAYMQISSLTSEDSAVYFCARGDSVPFAYWGQGTLVTVSA
VL: QIVLTQSPAIMSASPGEKVTITCSAHSSVSFMHWFQQKPGTSPKLWIYSTSSLASGVPARFGGSGSGTSYSLTISRMEAEDAATYYCQQRSSFPLTFGAGTKLELKR
Q: With B2 as the molecule, how does the “effect of conjugation on binding activity” value (HeLa cells [6]) read?
A: retains binding activity

B3: huDS6v1.01-DM4 (conjugate)
VH: QAQLVQSGAEVVKPGASVKMSCKASGYTFTSYNMHWVKQTPGQGLEWIGYIYPGNGATNYNQKFQGKATLTADTSSSTAYMQISSLTSEDSAVYFCARGDSVPFAYWGQGTLVTVSA
VL: EIVLTQSPATMSASPGERVTITCSAHSSVSFMHWFQQKPGTSPKLWIYSTSSLASGVPARFGGSGSGTSYSLTISSMEAEDAATYYCQQRSSFPLTFGAGTKLELKR
Q: For B3, which “effect of conjugation on affinity/avidity” value (KB cells [7]) is on record?
A: essentially no loss of affinity; also recorded: little effect on the avidity

Q: What about the “toxicity / body weight” value (HPAC xenografts; 200 μg/kg DM4) of the same molecule?
A: lack of body weight loss; also recorded: not toxic

Q: And the anti-tumor activity (HPAC xenografts; 200 μg/kg DM4, treatment on day 13)?
A: all mice achieving complete tumor regression; also recorded: potent anti-tumor activity

B4: huDS6v1.01: humanized (resurfaced) DS6 version 1.01, heavy chain with the human 28E4 T73 (antibody, V domains shown)
VH: QAQLVQSGAEVVKPGASVKMSCKASGYTFTSYNMHWVKQTPGQGLEWIGYIYPGNGATNYNQKFQGKATLTADTSSSTAYMQISSLTSEDSAVYFCARGDSVPFAYWGQGTLVTVSA
VL: EIVLTQSPATMSASPGERVTITCSAHSSVSFMHWFQQKPGTSPKLWIYSTSSLASGVPARFGGSGSGTSYSLTISSMEAEDAATYYCQQRSSFPLTFGAGTKLELKR
Q: For B4, which “cytotoxic activity of unconjugated antibody” value (WISH cells [8]) is on record?
A: no cytotoxic activity
